Test results: ChEMBL document CHEMBL6182910, “Design, Synthesis, and Biological Evaluation of 4-(Difluoromethyl)-1H-imidazole-5-carboxylic Acids/4-(3-Cyanophenoxy)pyrimidine-5-carboxylic Acids as P2Y1 Receptor Antagonists for Ischemic Stroke Treatment” (J Med Chem, 2025)
The source made the active and inactive calls. The calls are words filed in the database; no cut-off is given here.

Columns and labels:
[1] = Metabolic stability in human liver microsomes assessed as parent compound remaining at 1 uM measured after 3 hrs in presence of NADPH by LC-MS/MS analysis; assay type: ADME, Microsome; settings: read-out: Stability
Plasma [2] = test: Anti-platelet aggregation in platelet-rich plasma of male Japanese white rabbit assessed as inhibition of ADP-induced platelet aggregation preincubated for 15 mins followed by ADP addition measured up to 10 mins by Born's turbidometric method; assay type: functional, cell-free; settings: Oryctolagus cuniculus
Rattus norvegicus [3] = test: Neuroprotective activity in MCAO-induced brain damage Sprague-Dawley rat model assessed as reduction in brain infarction size administered intravenously immediately after arterial occlusion measured after 24 hrs by TTC staining based analysis; assay type: functional; settings: route iv
[4] = Metabolic stability in rat liver microsomes assessed as parent compound remaining at 1 uM measured after 3 hrs in presence of NADPH by LC-MS/MS analysis; assay type: ADME, Microsome; settings: read-out: Stability
[5] = Antioxidant activity assessed as DPPH radical scavenging activity at 60 uM incubated for 30 mins under dark condition by absorbance based method; assay type: functional
[6] = Tmax male Sprague-Dawley rat at 10 mg/kg, iv measured up to 24 hrs by LC-MS/MS analysis; assay type: ADME, organism-based; settings: in vivo
[7] = AUC in brain of male Kunming mouse at 10 mg/kg, iv measured for 0.083 to 24 hrs by LC-MS/MS analysis; assay type: ADME, organism-based; settings: in vivo, time 0.083-24 hrs
HT-22 = test: Neuroprotective activity against H2O2-induced oxidative stress in mouse HT-22 cells assessed as increase in nuclear Nrf2 level at 10 uM preincubated for 2 hrs followed by H2O2 addition measured after 16 hrs by Western blot analysis; assay type: functional, cell-based; settings: time 18.0 hrs
[8] = molecular target: P2Y purinoceptor 1 (Rattus norvegicus) (UniProt P49651); test: Induction of thermal stabilization of P2Y1 receptor in rat platelet-rich plasma at 10 uM incubated for 30 mins followed by heat exposure at 48 to 62 degreeC for 10 mins by CETSA; assay type: cell-free; settings: time 40.0 min
CYP3A4 = CYP3A4 (Homo sapiens, UniProt P08684); test: Inhibition of CYP3A4 in human liver microsomes using nifedipine as substrate at 10 uM preincubated for 5 min followed by NADPH addition measured after 120 mins by LC-MS/MS analysis relative to control; assay type: ADME, Microsome; settings: probe nifedipine, time 125 min
Rattus norvegicus [9] = test: Neuroprotective activity in MCAO-induced brain damage Sprague-Dawley rat model assessed as reduction in neurological damage administered intravenously immediately after arterial occlusion measured after 24 hrs by Longa's method; assay type: functional, organism-based; settings: dose 2.5-10 mg/kg, route iv
Rattus norvegicus [10] = test: Neuroprotective activity in MCAO-induced brain damage Sprague-Dawley rat model assessed as reduction in brain water content at 2.5 to 10 mg/kg, iv administered immediately after arterial occlusion measured after 24 hrs; assay type: functional, organism-based; settings: dose 2.5-10 mg/kg
Rattus norvegicus [11] = test: Neuroprotective activity in MCAO-induced brain damage Sprague-Dawley rat model assessed as improvement in hippocampal neuron damage administered intravenously immediately after arterial occlusion measured after 24 hrs by H and E staining based analysis; assay type: functional, organism-based; settings: dose 2.5-10 mg/kg, route iv
Rattus norvegicus [12] = test: Neuroprotective activity in MCAO-induced brain damage Sprague-Dawley rat model assessed as transparent cytoplasm at 2.5 to 10 mg/kg, iv administered immediately after arterial occlusion measured after 24 hrs by H and E staining based analysis; assay type: functional, organism-based; settings: dose 2.5-10 mg/kg
Rattus norvegicus [13] = test: Anti-platelet aggregation in Sprague-Dawley rat assessed as inhibition of ADP-induced platelet aggregation at 10 mg/kg, po measured for 15 mins in presence of 10 uM ADP by cell counter analysis relative to control; assay type: functional; settings: 0.25 h
[14] = Protein binding in rat brain homogenate at 10 uM incubated for 12 hrs by equilibrium dialysis method; assay type: ADME, tissue-based; settings: read-out: PB (converted)
Rattus norvegicus [15] = test: Anti-platelet aggregation in Sprague-Dawley rat assessed as reduction in ADP-induced bleeding loss at 10 mg/kg, po measured for 15 mins in presence of 10 uM ADP; assay type: functional, organism-based
Rattus norvegicus [16] = test: Neuroprotective activity in MCAO-induced brain damage Sprague-Dawley rat model assessed as brain infarction size at 5 mg/kg, iv administered immediately after arterial occlusion measured after 24 hrs by TTC staining based analysis (reference value: 43.1 %); assay type: functional
Plasma [17] = test: Anti-platelet aggregation in platelet-rich plasma of male male Sprague-Dawley rat assessed as inhibition of ADP-induced platelet aggregation preincubated for 15 mins followed by ADP addition measured up to 10 mins by Born's turbidometric method; assay type: functional, cell-free
[18] = Clearance male Sprague-Dawley rat at 10 mg/kg, iv measured up to 24 hrs by LC-MS/MS analysis; assay type: ADME, organism-based; settings: in vivo
CYP2E1 = CYP2E1 (Homo sapiens, UniProt P05181); test: Inhibition of CYP2E1 in human liver microsomes using chlorzoxazone as substrate at 10 uM preincubated for 5 min followed by NADPH addition measured after 120 mins by LC-MS/MS analysis relative to control; assay type: ADME, Microsome; settings: probe chlorzoxazone, time 125 min
Rattus norvegicus [19] = test: Neuroprotective activity in MCAO-induced brain damage Sprague-Dawley rat model assessed as plasma MDA level at 2.5 to 10 mg/kg, iv administered immediately after arterial occlusion measured after 24 hrs (reference value: 7.93 nmol/ml); assay type: functional; settings: dose 2.5-10 mg/kg
Rattus norvegicus [20] = test: Neuroprotective activity in MCAO-induced brain damage Sprague-Dawley rat model assessed as plasma GSH-px level at 2.5 to 10 mg/kg, iv administered immediately after arterial occlusion measured after 24 hrs; assay type: functional; settings: dose 2.5-10 mg/kg
[21] = Half life male Sprague-Dawley rat at 10 mg/kg, iv measured up to 24 hrs by LC-MS/MS analysis; assay type: ADME, organism-based; settings: in vivo
Rattus norvegicus [22] = test: Neuroprotective activity in MCAO-induced brain damage Sprague-Dawley rat model assessed as clear nucleoli with uniform staining at 2.5 to 10 mg/kg, iv administered immediately after arterial occlusion measured after 24 hrs by H and E staining based analysis; assay type: functional, organism-based; settings: dose 2.5-10 mg/kg
[23] = Protein binding in rat plasma at 10 uM incubated for 12 hrs by equilibrium dialysis method; assay type: ADME, cell-free; settings: read-out: PPB (converted)
CYP1A2 = molecular target: T1, CYP1A2 (Homo sapiens, UniProt P05177); test: Inhibition of CYP1A2 in human liver microsomes using phenacetin as substrate at 10 uM preincubated for 5 min followed by NADPH addition measured after 120 mins by LC-MS/MS analysis relative to control; assay type: ADME, Microsome; settings: probe phenacetin, time 125 min
T1 sequence (P05177 whole entry): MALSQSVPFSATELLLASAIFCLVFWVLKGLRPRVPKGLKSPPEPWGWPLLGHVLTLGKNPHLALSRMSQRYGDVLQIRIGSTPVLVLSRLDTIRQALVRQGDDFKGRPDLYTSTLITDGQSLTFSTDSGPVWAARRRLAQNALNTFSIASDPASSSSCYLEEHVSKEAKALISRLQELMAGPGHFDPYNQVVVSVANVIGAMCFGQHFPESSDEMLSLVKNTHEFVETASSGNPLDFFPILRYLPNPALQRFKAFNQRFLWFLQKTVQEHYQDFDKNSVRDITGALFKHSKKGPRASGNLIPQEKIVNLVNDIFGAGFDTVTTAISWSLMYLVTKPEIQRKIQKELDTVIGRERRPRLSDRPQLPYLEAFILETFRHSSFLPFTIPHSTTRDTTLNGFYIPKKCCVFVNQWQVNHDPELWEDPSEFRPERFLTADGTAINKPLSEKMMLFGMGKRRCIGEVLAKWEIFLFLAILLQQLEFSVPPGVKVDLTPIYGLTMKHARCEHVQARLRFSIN

Sequence of CYP2E1 (P05181 whole entry): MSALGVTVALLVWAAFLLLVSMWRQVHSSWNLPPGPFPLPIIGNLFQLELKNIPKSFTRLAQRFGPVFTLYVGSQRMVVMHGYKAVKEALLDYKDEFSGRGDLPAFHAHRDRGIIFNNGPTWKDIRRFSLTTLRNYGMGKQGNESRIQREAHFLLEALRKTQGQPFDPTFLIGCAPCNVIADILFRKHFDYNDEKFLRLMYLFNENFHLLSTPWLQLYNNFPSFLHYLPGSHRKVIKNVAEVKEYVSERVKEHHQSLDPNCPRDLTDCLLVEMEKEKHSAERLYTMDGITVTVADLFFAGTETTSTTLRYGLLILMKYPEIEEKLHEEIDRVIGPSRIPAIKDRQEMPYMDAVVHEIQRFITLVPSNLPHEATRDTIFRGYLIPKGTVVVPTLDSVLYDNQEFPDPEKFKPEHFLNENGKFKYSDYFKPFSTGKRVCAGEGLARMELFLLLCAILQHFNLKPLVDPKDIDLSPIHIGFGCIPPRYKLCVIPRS
Sequence of CYP3A4 (P08684 whole entry): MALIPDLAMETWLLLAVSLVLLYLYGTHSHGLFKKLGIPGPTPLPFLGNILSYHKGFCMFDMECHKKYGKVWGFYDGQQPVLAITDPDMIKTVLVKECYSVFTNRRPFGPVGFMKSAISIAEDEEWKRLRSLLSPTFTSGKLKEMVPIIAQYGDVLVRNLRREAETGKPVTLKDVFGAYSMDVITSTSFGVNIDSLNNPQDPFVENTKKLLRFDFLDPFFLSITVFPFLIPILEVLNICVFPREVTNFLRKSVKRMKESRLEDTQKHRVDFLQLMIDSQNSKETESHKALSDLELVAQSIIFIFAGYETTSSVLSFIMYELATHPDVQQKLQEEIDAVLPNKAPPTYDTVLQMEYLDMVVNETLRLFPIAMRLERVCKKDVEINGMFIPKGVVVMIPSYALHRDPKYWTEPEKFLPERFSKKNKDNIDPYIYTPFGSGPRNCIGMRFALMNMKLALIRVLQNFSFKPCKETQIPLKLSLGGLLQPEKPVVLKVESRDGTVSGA
Sequence of P2Y purinoceptor 1 (Rattus norvegicus) (P49651 whole entry): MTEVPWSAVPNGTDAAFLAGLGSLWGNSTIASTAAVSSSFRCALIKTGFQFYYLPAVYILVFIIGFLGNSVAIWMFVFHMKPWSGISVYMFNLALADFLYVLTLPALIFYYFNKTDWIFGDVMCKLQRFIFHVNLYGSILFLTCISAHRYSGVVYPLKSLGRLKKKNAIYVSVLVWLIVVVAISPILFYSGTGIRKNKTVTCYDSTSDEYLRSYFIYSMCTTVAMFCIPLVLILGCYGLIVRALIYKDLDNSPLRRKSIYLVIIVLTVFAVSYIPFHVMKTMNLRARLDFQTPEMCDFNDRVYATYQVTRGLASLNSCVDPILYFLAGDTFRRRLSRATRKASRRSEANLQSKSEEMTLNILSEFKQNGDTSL

Compound	remaining at 3 h, 1 µM [1]	IC50 (Plasma [2])	ED50 (Rattus norvegicus [3])	remaining at 3 h, 1 µM [4]	Activity [5]	Tmax [6]	AUC [7]	Activity (HT-22)	Activity [8]	inhibition at 2 h, 10 µM (CYP3A4)	Activity (Rattus norvegicus [9])	Activity (Rattus norvegicus [10])	Activity (Rattus norvegicus [11])	Activity (Rattus norvegicus [12])	inhibition in vivo at 10 mg/kg (Rattus norvegicus [13])	fraction unbound at 12 h, 10 µM [14]	Activity (Rattus norvegicus [15])	Activity (Rattus norvegicus [16])	IC50 (Plasma [17])	clearance [18]	further results
N#Cc1cccc(Oc2nc(-c3cccc(C#N)c3)ncc2C(=O)O)c1	76.9%	2640 nM	4.6 mg/kg	71.5%	6.15%	4.98 min	12.81 µg·h/g	Active	Active	51.7%	Dose-dependent-effect; Outperformed Edaravone And Hnw001 At 10 Mg/Kg	Active; Water Content Did Not Return To Blank Level; At 10 Mg/Kg, Compound Showed Comparable Effect To Bptu, Edaravone, Hnw001	Dose-dependent-effect; Activity Comparable To Hnw001, Bptu, Edaravone At 10 Mg/Kg	Active	37.2%	0.046	Moderate_effect; Moderate Bleeding Loss Was Observed; Potency Was More Than Bptu And Ticagrelor	21.3%	2810 nM	7 mL/min/kg	inhibition at 2 h, 10 µM (CYP2E1): 36.4%; Activity (Rattus norvegicus [19]): 4.37 nmol/mL; Activity (Rattus norvegicus [20]): 591.5 U/ml; half-life [21]: 38.5 min; Activity (Rattus norvegicus [22]): Active; fraction unbound at 12 h, 10 µM [23]: 0.046; inhibition at 2 h, 10 µM (CYP1A2): 6.5%
N#Cc1cccc(-c2nc(C(F)F)c(C(=O)O)n2OCc2csc(N)n2)c1	92.5%	1860 nM	8.39 mg/kg	99.4%	4.29%	4.98 min	0.7 µg·h/g	Active	Active	55.7%	Dose-dependent-effect; Outperformed Edaravone And Hnw001 At 10 Mg/Kg	Active; Water Content Did Not Return To Blank Level	Dose-dependent-effect; Activity Comparable To Hnw001, Bptu, Edaravone At 10 Mg/Kg	Active	38.8%	0.092	Active; No Bleeding Loss Was Observed	23.3%	2520 nM	14.6 mL/min/kg	inhibition at 2 h, 10 µM (CYP2E1): 50.2%; Activity (Rattus norvegicus [19]): 4.37 nmol/mL; Activity (Rattus norvegicus [20]): 645.4 U/ml; half-life [21]: 14.9 min; Activity (Rattus norvegicus [22]): Active; fraction unbound at 12 h, 10 µM [23]: 0.074; inhibition at 2 h, 10 µM (CYP1A2): 9%
